Assay results from paper PMC5902437, “Structural studies on radiopharmaceutical DOTA-minigastrin analogue (CP04) complexes and their interaction with CCK2 receptor” (EJNMMI Research, 2018).

Columns and labels:
[1] = target: T1, human CCK-2R (Homo sapiens, UniProt P32239); assay: Competition binding assay with [^90Y]Y-CP04 as competitive radioligand in A431-CCK2R(+) cells; settings: 0.5 mln per well, radioligand [^90Y]Y-CP04 0.24 pmol per well, 1 h at 37 °C, competitor 10^-6–10^-13 M, cell-associated radioactivity by gamma counter, mean ± SD, n = 3 experiments in triplicate, read-out: apparent 50% inhibitory concentration (IC50) for hCCK-2R
T1 construct: expressed in transfected cells; host or cells: A431 human epidermoid carcinoma cells, stably transfected (gift of Prof. Luigi Aloj)
T1 sequence (P32239 1-447): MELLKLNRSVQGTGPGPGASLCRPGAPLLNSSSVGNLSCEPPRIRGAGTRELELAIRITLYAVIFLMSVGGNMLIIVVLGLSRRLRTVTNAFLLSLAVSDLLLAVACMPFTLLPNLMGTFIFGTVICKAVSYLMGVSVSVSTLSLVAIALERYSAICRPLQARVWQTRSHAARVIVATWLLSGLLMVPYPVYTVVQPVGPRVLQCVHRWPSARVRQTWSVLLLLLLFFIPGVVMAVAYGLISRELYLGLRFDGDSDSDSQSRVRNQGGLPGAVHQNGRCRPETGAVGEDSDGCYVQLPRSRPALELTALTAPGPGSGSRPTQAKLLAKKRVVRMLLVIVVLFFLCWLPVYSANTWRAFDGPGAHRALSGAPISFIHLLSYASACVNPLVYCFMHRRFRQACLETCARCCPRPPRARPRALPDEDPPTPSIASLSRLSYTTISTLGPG
Protocol: The A431 human epidermoid carcinoma cell line stably transfected with the human CCK2R (A431-CCK2R(+)) and mock transfected with an empty vector alone (A431-CCK2R(−)) were kindly provided by Prof. Luigi Aloj.
The cells were cultured in Dulbecco’s modified Eagle’s medium (DMEM) supplemented with 10% of heat-inactivated fetal bovine serum and antibiotics (penicillin 100 U/mL and streptomycin 100 μg/mL) and cultivated at 37 °C in 5% CO2.
The binding affinity (the apparent 50% inhibitory concentration (IC50)) of [^natGa]Ga-CP04 and [^natLu]Lu-CP04 complexes for CCK2 receptor was determined in A431-CCK2R(+) cell line using [^90Y]Y-CP04 as a competitive radioligand according to the method used by Roosenburg et al.. [^90Y]Y-CP04 was obtained with a molar activity of 2.05 GBq/μmol calculated at the time of experiment and 98% radiochemical purity as determined by radio HPLC method. Human epidermoid carcinoma (A431-CCK2(+)) cells were subcultured overnight in 12-well plates in concentration of 0.5 mln per well. Before the experiments, the cells were washed with DMEM medium and then [^90Y]Y-labeled CP04 (2.05 GBq/μmol) was added to the cells in amount of 0.24 pmol per well (ca. 80,000 cpm) and incubated for 1 h at 37 °C with increasing concentrations (10^−6–10^−13 M) of the Ga and Lu complexes of CP04 peptide. […]

[2] = tested on: CCK-2R; settings: literature SAR of CCK/gastrin derivatives; cited from earlier work
From the text: Table 3 SAR data from CCK/gastrin derivatives and their correspondence to our model | column: SAR data from CCK/gastrin derivatives

IC50 [1]	Compound	binding to the receptor (SAR data in words) [2]
1.15 ± 0.39 nM	CSCC[C@H](NC(=O)[C@H](Cc1c[nH]c2ccccc12)NC(=O)CNC(=O)[C@H](Cc1ccc(O)cc1)NC(=O)[C@H](C)NC(=O)[C@@H](CCC(=O)O)NC(=O)[C@@H](CCC(=O)O)NC(=O)[C@@H](CCC(=O)O)NC(=O)[C@@H](CCC(=O)O)NC(=O)[C@@H](CCC(=O)O)NC(=O)[C@@H](CCC(=O)O)NC(=O)CN1CCN(CC(=O)O)CCN(CC(=O)O)CCN(CC(=O)O)CC1)C(=O)N[C@@H](CC(=O)O)C(=O)N[C@@H](Cc1ccccc1)C(N)=O [[^natGa]Ga-CP04, metal not drawn]	–
1.02 ± 0.28 nM	CSCC[C@H](NC(=O)[C@H](Cc1c[nH]c2ccccc12)NC(=O)CNC(=O)[C@H](Cc1ccc(O)cc1)NC(=O)[C@H](C)NC(=O)[C@@H](CCC(=O)O)NC(=O)[C@@H](CCC(=O)O)NC(=O)[C@@H](CCC(=O)O)NC(=O)[C@@H](CCC(=O)O)NC(=O)[C@@H](CCC(=O)O)NC(=O)[C@@H](CCC(=O)O)NC(=O)CN1CCN(CC(=O)O)CCN(CC(=O)O)CCN(CC(=O)O)CC1)C(=O)N[C@@H](CC(=O)O)C(=O)N[C@@H](Cc1ccccc1)C(N)=O [[^natLu]Lu-CP04, metal not drawn]	–
–	H-Trp-Met-Asp-Phe-NH2 [CCK-4, C-terminal tetrapeptide of CCK]	1. C-terminal sequence in cholecystokinins and gastrins is a condition necessary and sufficient for high affinity towards the receptor 2. Even a fragment as small as a tetrapeptide H-Trp-Met-Asp-Phe-NH2 (CCK-4) exhibits relatively good binding
